{"source": "patent US20100041757A1", "about": "“N-ARYL-HYDROXYALKYLIDENE-CARBOXAMIDE COMPOUNDS AND THEIR USE” (priority 2006, published 2010)", "key": {"[1]": {"tested_on": "skin of the upper lip (philtrum)", "assay": "Cooling sensation bioassay, ointment applied to skin above the upper lip (philtrum) of test subjects", "format": "in vivo, human", "conditions": "for duration of action: applied to the skin of test subjects; for qualitative aspects of sensation (coolness and not cold, duration at least three hours): topical, philtrum method", "excerpt": "A reliable place for topical application is on the upper lip, above the vermillion border of the lips, on the philtrum, lateral to the philtrum until the nasolabial folds, and on the lower nostrils. This part of the face is known to be densely innervated with cold receptors, second only to the surface of eyeball. Tingling, cool and cold sensations may be experienced and rated for intensity. This test is quite accurate for predicting the cooling activity of candidate N-arylshydroxyalkylidene-cCarboxamide drugs, but most importantly, it also measures the duration of drug action on the sensory receptors. The duration of action is not measured in a receptor assay and is difficult to quantify on the tongue because of the dynamic fluid conditions in the oral cavity and the presence of taste factors that affect thermosensation.\nFor bioassay of […] on the skin, CPS-195 was stirred and dissolved in warm liquid Aquaphor® ointment to yield ointment concentrations of 0.25, 0.5, 1, and 2% wt/vol. After cooling, 50 to 80 mg of the solid ointment was placed on the tip of a plastic stick and applied to the skin above the upper lip, on the philtrum, and lateral to the philtrum up to the nasolabial folds, of test subjects and the onset and duration of cooling sensations recorded. Each of the compounds produce cooling on the skin of the upper lip with duration of action of more than 1 hour.\nThe intensity of the subjective skin sensation is rated as 0, 1, 2 or 3 with 0 as no change, 1 as slight coolness, cold, or tingling, 2 as clear cut signal of coolness, cold, or tingling, and 3 as robust cooling or cold. The interval for recording sensations is at 5 minute intervals, until two successive zeroes are obtained. The results are averaged values of 4 to 6 separate trials in the same individual. The data were plotted using SigmaPlot (Systat Software, Point Richmond Calif.) and a smoothing function with a negative exponential was used for analysis and statistical fit of the results.\nThe onset of drug action was taken as the time to reach 2 units of coolness intensity, and offset of drug action was the time when coolness intensity drops below 1.5, after previously surpassing 2 units. The duration of cooling action was defined as the offset time minus the onset time, which in this case averaged 2 minutes. The quality of the sensation was also noted, such as refreshing coolness, cold, or if the sensation was accompanied by irritation (stinging or burning). The quality of the sensation was not rated for intensity."}, "[2]": {"tested_on": "oral cavity", "assay": "Cooling sensation after placement on the dorsal surface of the tongue", "format": "in vivo, human", "protocol": "The onset of cooling was 3 to 5 minutes, but once the effect was established, the entire oral cavity and pharyngeal surfaces (oro-, laryngo- and naso-pharynx) felt cool.\nCPS-195 was formulated as a 3% wt/wt tablet in Ludipress®, a rapidly disintegrating direct compression excipient made by BASF Corp. The tablet size was 60 mg so each unit contained 1.8 mg of CPS-195. […] For example, applied onto the mucous membranes of the oral cavity it can soothe the discomforts of pharyngitis/laryngitis, oral mucositis, oral ulcers, and idiopathic facial pain. In the pharynx and upper airways, CPS-195 may be used to reduce or to treat cough, asthma, and chronic obstructive pulmonary disease. On the skin, CPS-195 can be used to treat the discomfort of severe acne, eczema, diabetic ulcers, and the like."}, "[3]": {"biological_target": "T1, TRP-M8 receptor (Homo sapiens, UniProt Q7Z2W7)", "T1 construct": "expressed in transfected cells", "T1 sequence (Q7Z2W7 whole entry)": "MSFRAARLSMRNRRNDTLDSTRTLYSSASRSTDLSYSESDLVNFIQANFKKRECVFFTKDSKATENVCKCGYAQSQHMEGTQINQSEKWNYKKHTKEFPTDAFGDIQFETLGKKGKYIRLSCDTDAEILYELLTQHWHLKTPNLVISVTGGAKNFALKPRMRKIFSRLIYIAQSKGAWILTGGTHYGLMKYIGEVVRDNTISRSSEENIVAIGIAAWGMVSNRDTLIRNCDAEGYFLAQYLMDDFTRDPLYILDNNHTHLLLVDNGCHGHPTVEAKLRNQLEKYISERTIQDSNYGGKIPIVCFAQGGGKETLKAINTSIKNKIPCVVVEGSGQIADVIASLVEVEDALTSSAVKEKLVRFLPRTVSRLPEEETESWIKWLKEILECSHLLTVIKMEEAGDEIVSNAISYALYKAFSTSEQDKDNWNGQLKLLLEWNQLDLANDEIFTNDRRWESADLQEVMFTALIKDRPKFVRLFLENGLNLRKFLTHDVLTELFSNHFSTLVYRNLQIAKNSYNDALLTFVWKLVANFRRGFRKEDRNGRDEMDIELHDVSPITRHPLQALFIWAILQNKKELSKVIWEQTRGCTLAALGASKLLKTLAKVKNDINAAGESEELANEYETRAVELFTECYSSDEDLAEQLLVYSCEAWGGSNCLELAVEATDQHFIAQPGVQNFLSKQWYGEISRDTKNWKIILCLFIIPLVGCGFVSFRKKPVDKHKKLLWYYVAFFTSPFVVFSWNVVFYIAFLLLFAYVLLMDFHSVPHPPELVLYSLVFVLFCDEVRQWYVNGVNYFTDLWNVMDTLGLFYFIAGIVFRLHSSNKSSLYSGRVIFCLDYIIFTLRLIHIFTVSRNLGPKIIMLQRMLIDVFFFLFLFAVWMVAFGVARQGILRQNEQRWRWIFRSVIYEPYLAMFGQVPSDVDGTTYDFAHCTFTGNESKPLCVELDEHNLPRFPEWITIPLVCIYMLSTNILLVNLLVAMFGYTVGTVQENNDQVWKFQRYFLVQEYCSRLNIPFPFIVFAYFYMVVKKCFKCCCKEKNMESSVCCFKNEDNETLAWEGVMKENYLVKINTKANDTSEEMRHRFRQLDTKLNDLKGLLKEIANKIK", "assay": "TRP-M8 receptor assay", "format": "cell-based", "excerpt": "Pain was defined by Sir Charles Sherrington as “the psychic adjunct of an imperative protective reflex”. Psychic events such as cooling, irritation, itch, and pain cannot be expressed by animals (animals cannot say “ouch” or that “it itches”) so the sensory effects of chemicals must be indirectly inferred. Receptor assays, based on cells transfected with the gene for TRP-M8 or TRP-A1, may be used as a model of sensory processes. […] But, as noted below, these assays give no information on how long and for what quality of sensations is occurring on human subjects. The best information on the pharmacological properties of these chemicals must therefore be derived from human experiment.\nThe sensations are more cold than cool, and have the sting and harshness of high concentrations of menthol. […] CPS-112 was therefore a disappointment in spite of its high potency on the receptor assay."}, "[4]": {"conditions": "2 mg on the dorsal surface of the tongue"}}, "data": [{"smiles": "CC1CCC(C(C)C)C(O)C1", "note": "(single isomer, unassigned; (-)) [(−)-menthol, reference compound]", "values": [{"measurement": "duration of action", "setting": "[1]", "value": "less than one"}]}, {"smiles": "CC(C)[C@@H]1CC[C@@H](C)C[C@H]1C(=O)N(C)CC(O)c1cccc(O)c1", "note": "(stereo in doubt) [CPS-195, 2-isopropyl-5-methyl-cyclohexanecarboxylic acid (2′-hydroxy-2′-[3″-hydroxy-phenyl]-ethyl)-N-methyl-amide]", "values": [{"measurement": "duration of cooling sensation within the oral cavity", "setting": "[2]; [4]", "value": "over 4 hours"}, {"measurement": "quality of cool/cold sensations", "setting": "[2]; [4]", "value": "pleasant and not aversive"}, {"measurement": "duration of action", "setting": "[2]; single dose of 2 mg applied to the surface of the tongue or on to the philtrum", "value": "~4", "unit": "h"}, {"measurement": "duration of action (coolness and cold on skin of the upper lip)", "setting": "[1]; 0.25% wt/vol in Aquaphor ointment", "value": 1.2, "unit": "h"}, {"measurement": "duration of action (coolness and cold on skin of the upper lip)", "setting": "[1]; 0.5% wt/vol in Aquaphor ointment", "value": 1.8, "unit": "h"}, {"measurement": "duration of action (coolness and cold on skin of the upper lip)", "setting": "[1]; 1% wt/vol in Aquaphor ointment", "value": 2.4, "unit": "h"}, {"measurement": "duration of action (coolness and cold on skin of the upper lip)", "setting": "[1]; 2% wt/vol in Aquaphor ointment", "value": 5.2, "unit": "h"}, {"measurement": "potency compared to CPS-179, CPS-190 and CPS-192", "setting": "[1]; skin of the upper lip", "value": "most potent"}]}, {"smiles": "CC(C)[C@@H]1CC[C@@H](C)C[C@H]1C(=O)Nc1ccc(S(=O)(=O)Nc2ncccn2)cc1", "note": "[CPS-125]", "values": [{"measurement": "qualitative aspects of sensation (coolness and not cold, duration at least three hours)", "setting": "[1]", "value": "met"}]}, {"smiles": "CCOC(=O)CNC(=O)[C@@H]1C[C@H](C)CC[C@H]1C(C)C", "note": "[WS-5, reference compound]", "values": [{"measurement": "duration of action", "setting": "[1]", "value": "less than one"}]}, {"smiles": "COc1ccc(NC(=O)[C@@H]2C[C@H](C)CC[C@H]2C(C)C)cc1", "note": "[WS-12, reference compound]", "values": [{"measurement": "time at which action is dissipated", "setting": "[1]; 2% preparation", "value": "one"}, {"measurement": "time at which duration of action peaks", "setting": "[1]; 2% preparation", "value": 30, "unit": "min"}, {"measurement": "sensation elicited on the philtrum and its environs", "setting": "[1]; applied at 1 to 2%", "value": "strong cold sensations"}, {"measurement": "qualitative aspects of sensation (coolness and not cold, duration at least three hours)", "setting": "[1]", "value": "sensations of cold, but of brief duration"}, {"measurement": "active concentrations on the TRP-M8 receptor assay", "setting": "[3]", "value": "sub-micromolar"}]}]}
